Where two headings read alike, the source gives them in different places.
Legend:
[1] = test system: Namalwa and Raji cell lines; experiment: Apoptosis by caspase 3/7 luminescent assay and western blot in BL cell lines; assay type: cell-based, human; conditions: 24 hours of drug exposure; 8, 16, 32 μM
Protocol: Namalwa cells are cultured in RPMI 1640, 10% fetal bovine serum, 1% PenStrep, and placed in a humidified atmosphere containing 5% CO2 at 37° C. 10,000-15,000 cells/well are seeded in 96 white wall well plates in 100 microliter medium/per well for 24 h. […] 100 microliters of Caspase-Glo 3/7 assay is added and luminescence is then read. Caki-1 cells are cultured in RPMI 1640, 10% fetal bovine serum, 1% PenStrep, and placed in a humidified atmosphere containing 5% CO2 at 37° C. 5,000 cells/well are seeded in 96 white wall well plates in 100 microliter medium/per well for 24 h. […] 100 microliters of Caspase-Glo 3/7 assay is added and luminescence is then read.

ACHN tumors = conditions: equimolar doses i.p. 3 times a week
Protocol: (§1) Tumor size is measured using a formula (length×width^2)/2.
(§2) Apoptosis was assessed by caspase 3/7 luminescent assay. Cleavage of apoptosis substrates was determined by western blotting. […] Formalin-fixed tumor, liver and kidney sections were stained with H&E and kidney sections were scored semiquantitativey.

Renca tumors = conditions: equimolar doses i.p. 3 times a week
Protocol: as §1, §2

[2] = test system: B-cell lymphoma cell lines Namalwa, Raji, CA46, Ramos, Daudi; experiment: Growth and viability of B-cell Burkitt's lymphoma cell lines, MTT, 72 h; assay type: cell-based, human; conditions: B-cell lymphoma cell lines, 72 h
Protocol: 5,000 cells/well renal cancer cells and 10,000 cells/well lymphoma cells are seeded in 96 well plates in 100 microliter medium/per well for 24 h. […] Renal cancer cells are fixed with 3.7% paraformaldehyde for 15 minutes and are stained with Crystal violet solution (0.5% in 25% methanol) for 30 minutes. After rinsing with water cell layers are dried and decolorized with Sorenson citrate with shaking for 20 minutes. […] Lymphoma cell growth was evaluated using MTT and cells are incubated for 4 hours.
(§3) Induction of apoptosis was assessed using a caspase 3/7 luminescent assay. Cleavage of apoptosis substrates and inhibition of c-myc was determined by western blotting, with images quantified by ImageJ after normalization with GAPDH. […] Formalin-fixed tumor and kidney sections were stained with hematoxylin and esosin and kidney sections scored using a semiquantitative scale designed to assess AKI-associated tubular injury (tubular epithelial cell loss, necrosis, tubular epithelial simplification, intratubular debris, and casts).

mouse kidneys [3] = experiment: Kidney histopathology in RCC tumor-bearing mice (H&E, semiquantitative score); conditions: i.p. 3 times a week for 4 weeks
Protocol: as §2

Namalwa tumors = experiment: Namalwa xenograft growth in mice; assay type: in vivo, mouse; conditions: equimolar doses i.p. 3 times a week
[4] = test system: Namalwa cell line-derived xenografts; experiment: NIR-dye-cisplatin uptake in Namalwa xenografts vs organs (NIRF microscopy, IVIS); conditions: in vivo
From the text: FIG. 28 depicts in accordance with various embodiments of the invention, B-cell lymphoma cell line (Namalwa) subcutaneus tumor xenografts in NCR-NU mice were extracted after the mice were sacrificed. NIR-dye-cisplatin uptake in tumors were imaged by a near-infrared fluorescence (NIRF) microscopy and IVIS Lumina XR Imaging System.

Caki-1 cells = experiment: Apoptosis by caspase 3/7 luminescent assay and western blot in Caki-1 cells; assay type: cell-based, human; conditions: 24 hours of drug exposure, 8, 16, and 32 μM
Protocol: 10,000-15,000 cells/well are seeded in 96 white wall well plates in 100 microliter medium/per well for 24 h. […] 100 microliters of Caspase-Glo 3/7 assay is added and luminescence is then read. […] 5,000 cells/well are seeded in 96 white wall well plates in 100 microliter medium/per well for 24 h. […] 100 microliters of Caspase-Glo 3/7 assay is added and luminescence is then read.
as §2

[5] = test system: ex vivo expanded CTCs from PC patients and LNCaP and C4-2B cells from mouse bone marrow, 3-D spheroids; experiment: Viability/apoptosis of PC CTCs and bone marrow-derived LNCaP and C4-2B grown as 3-D spheroids; assay type: cell-based, human
Protocol: Immortalized PC cell lines (PC3, LNCaP, C4-2, C4-2B, 22Rv1) and 3-D spheroid growth of mouse bone marrow-derived LNCaP and C4-2B and ex vivo expanded CTCs from patients were used. […] Induction of apoptosis was assessed by caspase 3/7 luminescent assay. Growth inhibitory effects were compared between 2-D and 3-D. Senescent luciferase-tagged LNCaP and C4-2B cells from mouse bone marrow regained growth potential when propagated in vitro as 3D spheroids. RPMI medium supplemented with 10% FBS and 1% penicillin/streptomycin was used to grow CTCs in vitro.

[6] = test system: ovarian tumor cells OV90 and OVCA433; conditions: in vitro
mouse kidneys [7] = experiment: Kidney histopathology, AKI-associated tubular injury score, Namalwa-bearing mice; conditions: i.p. 3 times a week for 4 weeks
Protocol: FIG. 27 depicts in accordance with various embodiments of the invention, formalin-fixed kidney sections are stained with hematoxylin and esosin and scored using a semiquantitative scale designed to assess AKI-associated tubular injury (tubular epithelial cell loss, necrosis, tubular epithelial simplification, intratubular debris, and casts).
as §3

Compound: CC1(C)C(/C=C/C2=C(Cl)C(=C/C=C3/N(CCCCCC(=O)[O][Pt]([NH2])([NH2])([OH])([Cl])[Cl])c4ccccc4C3(C)C)/CCC2)=[N+](CCCCS(=O)(=O)[O-])c2ccccc21 [NIR dye-cisplatin, DZ-1-cisplatin]
- induction of apoptosis (caspase 3/7; caspase 9, caspase 3 and PARP) [1]: induces apoptosis
- tumor growth inhibition (ACHN tumors): tumor growth inhibition and apoptotic nuclear lobulation/fragmentation
- tumor growth inhibition (ACHN tumors; listed as dye-cisplatin): more effective than cisplatin
- tumor growth inhibition (Renca tumors): tumor growth inhibition and apoptotic nuclear lobulation/fragmentation
- tumor growth inhibition (Renca tumors; listed as dye-cisplatin): more effective than cisplatin
- antitumor effect (in words) [2]: even more potent antitumor effect
- kidney toxicity (histopathology) (mouse kidneys [3]): preserved the integrity and normal morphology of mouse kidneys
- tumor growth inhibition (Namalwa tumors): more effective than cisplatin
- accumulation in cell line-derived xenografts relative to mouse kidneys and lungs [4]: 7-15 times
- induction of apoptosis (caspase 3/7, apoptosis related markers) (Caki-1 cells): induced apoptosis
- induction of apoptosis (caspase 3/7, apoptosis related markers) (Caki-1 cells; listed as dye-cisplatin): induces apoptosis
- sensitivity of cells grown as 3-D spheroids [5]: extremely sensitive
- sensitivity of cell growth relative to unconjugated drug [6]: more sensitive
- kidney toxicity (histopathology) (mouse kidneys [7]): preserves the integrity and normal morphology of mouse kidneys

— US20190269801A1 (CEDARS-SINAI MEDICAL CENTER, priority 2016, published 2019)
